From ChEMBL document CHEMBL3507680, “University of Dundee, Gates Library screen for HepG2 cell viability”

Assay: Human HepG2 cell viability assay in 384 well format
Format: toxicity, cell-based
Parameters: dose 125 nL, time 70.5 hour; cytotoxicity at 70.5 h: concentration not given beside the values
Settings: HepG2 cells, read-out: Inhibition

Row | Compound | cytotoxicity at 70.5 h [%]
1 | N#Cc1c(-c2ccccc2)csc1N | -22.3
2 | CCOc1cccc(CNc2ccccc2C(F)(F)F)c1O | 13.7
3 | CCOc1cccc(CNc2ccccc2Cl)c1O | -4.02
4 | Cc1c(C)n(Cc2ccncc2)c2nc3c(c(N)c12)CCCC3 | -7.64
5 | O=C(O)C1CCN(C(=O)CCn2ccc3cc(Br)ccc32)CC1 | -15.9
6 | NC(=O)C1CCN(C(=O)Cn2ccc3cc(Br)ccc32)CC1 | -9.96
7 | CN(C(=O)Cn1nc(-c2ccccc2)ccc1=O)C1CCS(=O)(=O)C1 (configuration not stated) | -12.1
8 | O=C(NCCCN1CCOCC1)c1nc(-c2ccc3cc[nH]c3c2)no1 | -16.3
9 | O=C(NCCCN1CCCC1=O)c1nc(-c2ccc3cc[nH]c3c2)no1 | -22.5
10 | Cc1c(C)n(Cc2ccncc2)c2nc3c(c(N)c12)CCCCCC3 | 30.2
11 | O=c1ccc(-c2cccs2)nn1CN1CCN(C2CCS(=O)(=O)C2)CC1 (configuration not stated) | -10.9
12 | O=c1ccc(-c2cccs2)nn1CN1CCOCC1 | -16.7
13 | CC(C)c1nnc2ccc(N3CCCC(C(=O)Nc4nccs4)C3)nn12 (configuration not stated) | -25.2
14 | COc1cccc(N2Cc3nc(=O)n(C(C)C)n3C2=O)c1 | -13.3
15 | CC(C)c1nnc2ccc(N3CCC(C(=O)NC4CC4)CC3)nn12 | -25
16 | Cc1oc(-c2nc(C#N)c(N(C)C)o2)cc1S(=O)(=O)N1CCCCCC1 | 12.8
17 | Cc1ccc(-c2csc(N)c2C#N)c(C)c1 | -15.8
18 | O=c1[nH]c2c(c(=O)n1C1CCCCC1)CCC2NCc1ccccc1 (configuration not stated) | -30.1
19 | O=c1[nH]c2c(c(=O)n1C1CCCCC1)CCC2Nc1ccccn1 (configuration not stated) | 20.1
20 | O=c1[nH]c2c(c(=O)n1C1CCCCC1)CCC2Nc1ccc(Cl)cc1 (configuration not stated) | -12.5
21 | COc1ccc(NC2CCc3c2[nH]c(=O)n(C2CCCCC2)c3=O)cc1 (configuration not stated) | -28.5
22 | O=C1C(CS(=O)(=O)Nc2ccc(Br)cc2)=NC(=O)n2cccc21 | 2.35
23 | Cc1nn(C)c(=O)c2nn(-c3ccc(F)cc3)c(C)c12 | -8.42

Row | Compound | cytotoxicity at 70.5 h [%]
24 | Cc1cc(SCC(N)=O)nc(-c2cccc(F)c2)n1 | -11.7
25 | O=C(c1cnc2ccc(F)cc2c1NCc1ccco1)N1CCCCC1 | -9.21
26 | Cc1ccc(Cn2c(=O)[nH]c3csnc3c2=O)cc1 | -13.9
27 | O=C(c1cnc2ccc(F)cc2c1NCc1ccccn1)N1CCCC1 | -17.9
28 | CCCN(CCC)c1ncc(S(=O)(=O)c2cccc(C)c2)c(N)n1 | -20.1
29 | Cc1c(C(=O)O)cnn1-c1ccc(-c2nc(C(C)C)no2)cn1 | -15.1
30 | CCCc1noc(-c2ccc(-n3ncc(C(=O)O)c3C)nc2)n1 | 23.5
31 | Cc1noc(-c2ccc(-n3ncc(C(=O)O)c3C)nc2)n1 | -5.29
32 | Cc1cccc(-c2cc(C(=O)O)sn2)c1 | -14.1
33 | Cc1c(C(=O)N2CCN(C)CC2)n(C)c2ccc(Cl)cc12 | -11.7
34 | CCc1c(C)n(C)c2nc3ccccc3n2c1=O | 8.75
35 | CCc1c(C)n(CC(=O)OC)c2nc3ccccc3n2c1=O | -14.1
36 | CC1(C)CC(=O)c2cnc3nc(N4CCCC4)[nH]c(=O)c3c2C1 | -10.4
37 | CC1CCN(c2nc3ncc4c(c3c(=O)[nH]2)CC(C)(C)CC4=O)CC1 | -4.25
38 | O=C(NCCSCc1ccco1)c1ccc(N2CCOCC2)cc1 | -12.3
39 | COc1ccc(-n2nc(C(C)=O)c(C(C)=O)c2C)cc1Cl | 17.1
40 | Cc1nn(C)c(=O)c2nn(-c3cccc(Cl)c3)c(C)c12 | -14.1
41 | Cc1nn(C)c(=O)c2nn(-c3ccc(Cl)cc3)c(C)c12 | -1.68
42 | CC(=O)c1nn(-c2ccccc2)c(C)c1C(C)=O | -8.03
43 | COc1ccc(-c2nnsc2C(=O)N2CCSCC2)cc1 | -8.21
44 | COc1ccc(-c2nnsc2C(=O)N2CCC(C(N)=O)CC2)cc1 | -13.8
45 | Cc1cs/c(=N\C(=O)Cn2nc(N3CCSCC3)ccc2=O)[nH]1 | -13.2
46 | Cc1cs/c(=N\C(=O)Cn2nc(N3CCOCC3)ccc2=O)[nH]1 | -13.8

Row | Compound | cytotoxicity at 70.5 h [%]
47 | Cc1cn([C@@H]2CC3(CCNCC3)OC[C@@]2(C)O)c(=O)[nH]c1=O | 0.487
48 | c1cnc(N2CCC(c3csc(Nc4cnccn4)n3)CC2)nc1 | 12.4
49 | O=C1CCOC[C@]2(CN(Cc3ccccc3)C[C@H]2c2ccccc2)N1 | 26.7
50 | COc1ccccc1Cc1cc(O)nc(NC(C)CN(C)C)n1 (configuration not stated) | 2.81
51 | Cc1ccccc1OCCCNC(=O)C1(C)CC(=O)N2C=CC=CC2=N1 (configuration not stated) | 0.923
52 | CCC(C)(C)n1nnnc1C(c1cccs1)N1CCc2ccccc2C1 (configuration not stated) | 0.836
53 | Cc1nc(=O)c2ccccc2n1C1=CCN(CC(=O)NC(C)C)CC1 | -1.95
54 | Cc1nc(NCCN2CCCC2=O)cc(C2CN(C(C)C)CCO2)n1 (configuration not stated) | 1.39
55 | CC(C)C(=O)N1CCCC(Cc2ncccn2)C1 (configuration not stated) | -1.65
56 | CCC(=O)N1CCC(c2nc(N3CCCC3)ncc2S(C)(=O)=O)CC1 | 17.6
57 | O=C(NCCO)C1(CC2CC(c3ccc(F)cc3)=NO2)CCOCC1 (configuration not stated) | 14.1
58 | CC(=O)N1CCC(c2noc(C3CCC(=O)N3)n2)CC1 (configuration not stated) | 16.7
59 | Cc1noc(C)c1-c1nc(C2CCCN(C(=O)CN)C2)ccc1CO (configuration not stated) | -11.3
60 | Cc1c(CN2CCCC2c2cncc(CN3CCCC3)n2)cnn1C (configuration not stated) | 1.84
61 | CCn1cc(S(=O)(=O)N2CCC(C3CCCCN(C)C3=O)CC2)c(C)n1 (configuration not stated) | 7.12
62 | CC(C)c1cc(C(=O)N2CCCC(c3cc(=O)nc4n3CCC4)C2)no1 (configuration not stated) | -11.3
63 | FC(F)(F)c1cc(C2CCCN(c3cnccn3)C2)n2ccnc2n1 (configuration not stated) | -11.9
64 | CC(=O)N[C@H]1CCO[C@@H](c2cccc(NC(=O)c3ccc(=O)[nH]n3)c2)C1 | 24.6
65 | COc1ccc(NC(=O)c2cnc(C3CCN(C(C)=O)C3)nc2C)cc1 (configuration not stated) | 17.3
66 | CC1(c2ncc(CN3CCSCC3)cn2)CCCCO1 (configuration not stated) | -11.9
67 | O=C(CCn1cccn1)N1CCC(c2nnc(-c3ccsc3)o2)CC1 | -8.63
68 | CN1CCCC1c1ccnc2nccn12 (configuration not stated) | -7.34
69 | COc1nsc2nc(C3CCCN3c3ncccn3)ccc12 (configuration not stated) | -7.28

Row | Compound | cytotoxicity at 70.5 h [%]
70 | O=S1(=O)NC(C2CCCN(S(=O)(=O)N3CCCC3)C2)=Nc2ccccc21 (configuration not stated) | -6.9
71 | CC(=O)N[C@H]1CCO[C@@H](c2cccc(NC(=O)Cc3ccccc3)c2)C1 | 10.3
72 | CC1(C(N)=O)CN(S(=O)(=O)c2cccc(F)c2)CCO1 (configuration not stated) | 14.7
73 | Cc1nn(C)cc1NC(=O)CN1CCN(C2CCCC2)C(=O)C1 | -6.18
74 | CN(CCn1cncc1-c1cnc(N2CCOCC2)nc1)C1CCCC1 | -5.17
75 | O=S(=O)(c1cn[nH]c1)N1CCCC(O)(CN2CCOCC2)CC1 (configuration not stated) | -3.34
76 | Cc1c(CN2Cc3nccn3CC2c2ccccc2)cnn1C (configuration not stated) | -4.09
77 | Cc1noc(C)c1C(=O)N[C@@H]1CCC[C@@H](Oc2ccccc2)[C@@H]1O | -1.7
78 | CC(C)c1cc(C(=O)NCCc2nc(-c3cccnc3)n[nH]2)[nH]n1 | 11.1
79 | COc1ccc(C2CN(c3ncccn3)CCN2C(C)=O)cc1 (configuration not stated) | -5.51
80 | Cc1nccn1-c1nccnc1C1CCCN(C2CCCC2)C1 (configuration not stated) | 14.2
81 | Cc1cccc(Nc2noc3c2CN(C(=O)c2ccn(C)n2)CC3)c1C | 3.73
82 | Cc1cccc(C)c1Nc1noc2c1CN(C(=O)c1c[nH]nc1C)CC2 | 12.8
83 | COCC(=O)NCc1ccc(-c2ncncc2C(=O)N(C)C)cc1 | -2.25
84 | c1cc(CN2CCC[C@@H](Cn3nnc(-c4cnccn4)n3)C2)ccn1 | -2.89
85 | Cn1cc(CN2CCC(c3ncc(Cl)cc3S(C)(=O)=O)CC2)cn1 | -6.32
86 | CN1C[C@]2(CC[C@@H](C(=O)N3CCOCC3)CC2)Oc2ccccc2C1=O | -5.13
87 | CC(C)NC(=O)[C@H]1CN(Cc2ccccc2)C[C@@H]1C(=O)c1ccccc1 | -1.04
88 | O=C(O)[C@H]1CN(Cc2ccccc2)C[C@@H]1C(=O)c1ccccc1 | -3.77
89 | O=C(c1cc(C2CC2)n[nH]1)N1C[C@H]2CC[C@](O)(c3ccccc3F)[C@H]2C1 | -2.83
90 | Cc1cnc(C(=O)N2CCN(c3ncc4c(n3)CCOC4)CC2)cn1 | -1.26
91 | CCNC(=O)[C@@H]1CN(Cc2ccccc2)C[C@H]1C(=O)c1ccc(F)cc1 | -0.813
92 | COc1ccccc1OCCN(C)Cc1c(C2CC2)[nH]c2ncccc12 | 20.9

Row | Compound | cytotoxicity at 70.5 h [%]
93 | CN(CCc1ccccc1)Cc1c(C2CCOCC2)[nH]c2ncccc12 | -2.01
94 | CC(C)NC(=O)C1(Cc2ccccc2-c2ccccc2)CCCNC1 (configuration not stated) | -1.97
95 | Cc1cccc(CN2CCOCC2c2[nH]ncc2C)n1 (configuration not stated) | -2.39
96 | CN1CCCC1CCNC(=O)c1ccccc1-n1cnc(CN)c1 (configuration not stated) | 0.899
97 | Cc1nc(CC(=O)N2CCc3nc(-c4cnccn4)nc(O)c3C2)cs1 | 12.3
98 | O=C(NC(Cc1ccsc1)c1nccs1)C1CC1 (configuration not stated) | -6.11
99 | O=C1NCC2(CCCN(Cc3cccnc3)C2)Oc2ccccc21 (configuration not stated) | -7.07
100 | C=Cc1ccc(CN2CCCC3(CNC(=O)c4ccccc4O3)C2)cc1 (configuration not stated) | 8.95
101 | COc1ccc(CNCC(C)Oc2ccccn2)cc1 (configuration not stated) | -18.6
102 | CC(CNCc1ccc(F)cc1)Oc1ccccn1 (configuration not stated) | -17.7
103 | Cc1c(C(=O)N2CCOCC2)n(C)c2ccc(Cl)cc12 | -10.5
104 | Cc1nccn1CCCn1cncc1-c1ccc2c(c1)CC(C)N2C (configuration not stated) | 3.68
105 | O=C(c1ccnc(C2CCNCC2)c1)N1CCCC1 | 7.01
106 | CC(C)[C@H](N)C(=O)N1CCCC(C2=Nc3ccccc3S(=O)(=O)N2)C1 (some centres not stated) | -9.78
107 | Cc1nc(N)c2ccc(C3CCCN3)nc2n1 (configuration not stated) | -9.62
108 | Cn1nc(C2CCCN(Cc3ccc(F)cc3)C2)c2nccnc21 (configuration not stated) | 5.25
109 | Cn1nc(C2CCCN(Cc3cccs3)C2)c2nccnc21 (configuration not stated) | 3.16
110 | Cn1nc(C2CCCN(Cc3cc(F)ccc3F)C2)c2nccnc21 (configuration not stated) | -2.84
111 | Cc1nc2sccn2c1CN(CCCN(C)C)Cc1ccccn1 | -8.06
112 | Cc1ccc(CN(CCN(C)C)Cc2c(C)nc3sccn23)o1 | 6.95
